| melting point [°C] | Structure (SMILES) |
| --- | --- |
| 184 to 186 | CC(C)NC(=O)Nc1ccc(Oc2ccc(-c3c[nH]c(COc4ccccc4)n3)cc2)cc1 [Example 7, N-isopropyl-N′-(4-{4-[2-(phenoxymethyl)-1H-imidazol-4-yl]phenoxy}phenyl)urea] |
| 193 to 195 | NC(=N[N+](=O)[O-])Nc1ccc(Oc2ccc(-c3c[nH]c(COc4ccccc4)n3)cc2)cc1F [Example 13, N-(2-fluoro-4-{4-[2-(phenoxymethyl)-1H-imidazol-4-yl]phenoxy}phenyl)-N″-nitroguanidine] |
| 139 to 141 | N#CN=C(N)Nc1ccc(Oc2ccc(-c3c[nH]c(COc4ccccc4)n3)cc2)cc1F [Example 12, N″-cyano-N-(2-fluoro-4-{4-[2-(phenoxymethyl)-1H-imidazol-4-yl]phenoxy}phenyl)guanidine] |
| 146 to 148 | O=C(Nc1ccccc1)Nc1ccc(Oc2ccc(-c3c[nH]c(COc4ccccc4)n3)cc2)cc1 [Example 8, N-(4-{4-[2-(phenoxymethyl)-1H-imidazol-4-yl]phenoxy}phenyl)-N′-phenylurea] |
| 171 to 173 | NC(=S)Nc1ccc(Oc2ccc(-c3c[nH]c(COc4ccccc4)n3)cc2)cc1F [Example 6, N-(2-fluoro-4-{4-[2-(phenoxymethyl)-1H-imidazol-4-yl]phenoxy}phenyl)thiourea] |

Continued, compound first:

| Structure (SMILES) | melting point [°C] |
| --- | --- |
| NC(=O)Nc1ccc(Oc2ccc(-c3c[nH]c(COc4ccccc4)n3)cc2)cc1 [Example 3, N-(4-{4-[2-(phenoxymethyl)-1H-imidazol-4-yl]phenoxy}phenyl)urea] | 200 to 202 |
| CCNC(=S)Nc1ccc(Oc2ccc(-c3c[nH]c(COc4ccccc4)n3)cc2)cc1F [Example 5, N-ethyl-N′-(2-fluoro-4-{4-[2-(phenoxymethyl)-1H-imidazol-4-yl]phenoxy}phenyl)thiourea] | 105 to 107 |
| Cl.NS(=O)(=O)Nc1ccc(Oc2ccc(-c3c[nH]c(COc4ccccc4)n3)cc2)cc1F | 185 to 187 |
| CCNC(=S)Nc1ccc(Oc2ccc(-c3c[nH]c(COc4ccccc4)n3)cc2)cc1 [Example 4, N-ethyl-N′-(4-{4-[2-(phenoxymethyl)-1H-imidazol-4-yl]phenoxy}phenyl)thiourea] | 178 to 180 |
| CCCCNC(=O)Nc1ccc(Oc2ccc(-c3c[nH]c(COc4ccccc4)n3)cc2)cc1.O=C(O)C(F)(F)F | 85 to 87 |
| Cc1ccc(NC(=O)Nc2ccc(Oc3ccc(-c4c[nH]c(COc5ccccc5)n4)cc3)cc2)cc1 [Example 1, N-(4-methylphenyl)-N′-(4-{4-[2-(phenoxymethyl)-1H-imidazol-4-yl]phenoxy}phenyl)urea] | 192 to 194 |
